According to patent publication US20230250055A1, “PROCESS OF MAKING N,N-DIACETYL-L-CYSTINE DISODIUM SALT FROM CYSTINE AND ACETYL CHLORIDE IN METHANOL IN THE PRESENCE OF SODIUM HYDROXIDE” (Conopco, Inc., d/b/a UNILEVER, priority 2020, published 2023):

Experiments:
skin cells = assay: potentiating glutathione synthesis within skin cells; format: cell-based; details: compared with cystine
[1] = solubility of NDAC relative to cystine; format: physicochemical
[2] = organic solvents such as alcohols, ethers, esters, ketones; cited from earlier work

Compound	performance for potentiating glutathione synthesis within skin cells (skin cells)	solubility compared with cystine [1]	solubility in organic solvents [2]
CC(=O)N[C@@H](CSSC[C@H](NC(C)=O)C(=O)O)C(=O)O [NDAC, N,N′-diacetyl-L-cystine]	comparable to that of cystine	more soluble	
N[C@@H](CSSC[C@H](N)C(=O)O)C(=O)O [cystine, L-Cystine]			practically insoluble
